From paper PMC10246721, “Cryo-EM structures for the Mycobacterium tuberculosis iron-loaded siderophore transporter IrtAB” (Protein & Cell, 2022)

Columns and labels:
[1] = target: T1, IrtABΔSID (SID-truncated IrtAB) (Mycobacterium tuberculosis, UniProt P9WQJ7+P9WQJ9)
T1 construct: gene irtA

[2] = target: T1, IrtABΔSID (SID-truncated IrtAB); remark: listed apart in the source

Compound	cryo-EM structure [1]	ATPase activity, phosphate release (MAK-113) [2]
Nc1ncnc2c1ncn2[C@@H]1O[C@H](COP(=O)(O)OP(=O)(O)O)[C@@H](O)[C@H]1O [ADP]	we also solved the structure of IrtABΔSID in complex with ADP	–
Nc1ncnc2c1ncn2[C@@H]1O[C@H](COP(=O)(O)OP(=O)(O)OP(=O)(O)O)[C@@H](O)[C@H]1O [ATP]	–	ATPase activity of IrtABΔSID is comparable to that of the wild-type (WT) protein
